Experimental data published in paper PMC6120666 (The EMBO Journal, 2018).

What was measured:
Test in all cases: Drug affinity chromatography with c-ponatinib and LC-MS/MS (ponatinib interactome)
Format in all cases: binding
[1] = molecular target: T1, proteins of U2OS cell lysate (Homo sapiens, UniProt Q9HAV4); conditions: captured protein XPO5, Rank 207
T1 construct: Proteins enriched by c-ponatinib from U2OS cell lysate; endogenous in cells; host or cells: U2OS cell lysate
In short: (§1)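 U2OS cell lysate in NP-40 lysis buffer (2 mg protein per pulldown) was incubated with amine-derivatized NHS beads for 2 h at 4 °C. Bound proteins were washed, eluted with 100 mM formic acid, reduced, alkylated and trypsin-digested, then identified by nano-UPLC–MS/MS on Orbitrap instruments with a 60 min gradient.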

[2] = molecular target: T2, proteins of U2OS cell lysate (Homo sapiens, UniProt Q14315); conditions: FLNC, Filamin-C
T2 construct: Proteins enriched by c-ponatinib from U2OS cell lysate; endogenous in cells; host or cells: U2OS cell lysate
In short: as §1

[3] = molecular target: T3, proteins of U2OS cell lysate (Homo sapiens, UniProt P34932); conditions: HSPA4, Heat shock 70 kDa protein 4
T3 construct: Proteins enriched by c-ponatinib from U2OS cell lysate; endogenous in cells; host or cells: U2OS cell lysate
In short: as §1

[4] = molecular target: T4, proteins of U2OS cell lysate (Homo sapiens, UniProt P27707); conditions: DCK, Deoxycytidine kinase
T4 construct: Proteins enriched by c-ponatinib from U2OS cell lysate; endogenous in cells; host or cells: U2OS cell lysate
In short: as §1

[5] = molecular target: T5, proteins of U2OS cell lysate (Homo sapiens, UniProt O76071); conditions: CIAO1, Probable cytosolic iron-sulfur protein assembly protein CIAO1
T5 construct: Proteins enriched by c-ponatinib from U2OS cell lysate; endogenous in cells; host or cells: U2OS cell lysate
T5 sequence (O76071 whole entry): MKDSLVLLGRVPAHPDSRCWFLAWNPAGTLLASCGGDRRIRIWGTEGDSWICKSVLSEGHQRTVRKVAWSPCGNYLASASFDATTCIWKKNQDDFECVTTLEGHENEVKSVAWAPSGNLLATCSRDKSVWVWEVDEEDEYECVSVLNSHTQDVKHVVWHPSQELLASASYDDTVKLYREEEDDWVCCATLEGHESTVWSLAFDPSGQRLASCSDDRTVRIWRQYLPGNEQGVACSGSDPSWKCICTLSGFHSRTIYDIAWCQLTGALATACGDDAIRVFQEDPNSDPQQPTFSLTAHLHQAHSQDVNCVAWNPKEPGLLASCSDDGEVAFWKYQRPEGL
In short: as §1

[6] = molecular target: T6, proteins of U2OS cell lysate (Homo sapiens, UniProt Q15233); conditions: NONO, Non-POU domain-containing octamer-binding protein
T6 construct: Proteins enriched by c-ponatinib from U2OS cell lysate; endogenous in cells; host or cells: U2OS cell lysate
In short: as §1

[7] = molecular target: T7, proteins of U2OS cell lysate (Homo sapiens, UniProt P35659); conditions: DEK, Protein DEK
T7 construct: Proteins enriched by c-ponatinib from U2OS cell lysate; endogenous in cells; host or cells: U2OS cell lysate
T7 sequence (P35659 whole entry): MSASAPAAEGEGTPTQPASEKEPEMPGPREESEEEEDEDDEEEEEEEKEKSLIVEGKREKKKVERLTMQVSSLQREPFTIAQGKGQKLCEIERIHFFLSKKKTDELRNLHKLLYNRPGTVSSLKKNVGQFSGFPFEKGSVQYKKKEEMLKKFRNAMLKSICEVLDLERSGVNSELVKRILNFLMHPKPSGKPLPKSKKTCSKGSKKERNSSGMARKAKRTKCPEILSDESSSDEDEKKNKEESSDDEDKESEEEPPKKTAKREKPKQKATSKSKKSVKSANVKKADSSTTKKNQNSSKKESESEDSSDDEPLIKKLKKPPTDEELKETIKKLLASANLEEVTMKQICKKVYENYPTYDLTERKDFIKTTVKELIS
In short: as §1

[8] = molecular target: T8, proteins of U2OS cell lysate (Homo sapiens, UniProt Q14165); conditions: MLEC, Malectin
T8 construct: Proteins enriched by c-ponatinib from U2OS cell lysate; endogenous in cells; host or cells: U2OS cell lysate
T8 sequence (Q14165 29-292): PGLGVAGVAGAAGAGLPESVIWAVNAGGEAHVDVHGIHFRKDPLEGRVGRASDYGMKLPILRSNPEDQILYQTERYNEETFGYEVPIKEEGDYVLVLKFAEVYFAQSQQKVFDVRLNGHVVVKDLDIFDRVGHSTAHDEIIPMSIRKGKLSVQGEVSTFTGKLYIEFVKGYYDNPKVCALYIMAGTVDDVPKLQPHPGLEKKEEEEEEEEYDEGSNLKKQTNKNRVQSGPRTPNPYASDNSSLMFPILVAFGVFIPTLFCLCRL
In short: as §1

[9] = molecular target: T9, proteins of U2OS cell lysate (Homo sapiens, UniProt O14976); conditions: GAK, Cyclin-G-associated kinase
T9 construct: Proteins enriched by c-ponatinib from U2OS cell lysate; endogenous in cells; host or cells: U2OS cell lysate
T9 sequence (O14976 whole entry): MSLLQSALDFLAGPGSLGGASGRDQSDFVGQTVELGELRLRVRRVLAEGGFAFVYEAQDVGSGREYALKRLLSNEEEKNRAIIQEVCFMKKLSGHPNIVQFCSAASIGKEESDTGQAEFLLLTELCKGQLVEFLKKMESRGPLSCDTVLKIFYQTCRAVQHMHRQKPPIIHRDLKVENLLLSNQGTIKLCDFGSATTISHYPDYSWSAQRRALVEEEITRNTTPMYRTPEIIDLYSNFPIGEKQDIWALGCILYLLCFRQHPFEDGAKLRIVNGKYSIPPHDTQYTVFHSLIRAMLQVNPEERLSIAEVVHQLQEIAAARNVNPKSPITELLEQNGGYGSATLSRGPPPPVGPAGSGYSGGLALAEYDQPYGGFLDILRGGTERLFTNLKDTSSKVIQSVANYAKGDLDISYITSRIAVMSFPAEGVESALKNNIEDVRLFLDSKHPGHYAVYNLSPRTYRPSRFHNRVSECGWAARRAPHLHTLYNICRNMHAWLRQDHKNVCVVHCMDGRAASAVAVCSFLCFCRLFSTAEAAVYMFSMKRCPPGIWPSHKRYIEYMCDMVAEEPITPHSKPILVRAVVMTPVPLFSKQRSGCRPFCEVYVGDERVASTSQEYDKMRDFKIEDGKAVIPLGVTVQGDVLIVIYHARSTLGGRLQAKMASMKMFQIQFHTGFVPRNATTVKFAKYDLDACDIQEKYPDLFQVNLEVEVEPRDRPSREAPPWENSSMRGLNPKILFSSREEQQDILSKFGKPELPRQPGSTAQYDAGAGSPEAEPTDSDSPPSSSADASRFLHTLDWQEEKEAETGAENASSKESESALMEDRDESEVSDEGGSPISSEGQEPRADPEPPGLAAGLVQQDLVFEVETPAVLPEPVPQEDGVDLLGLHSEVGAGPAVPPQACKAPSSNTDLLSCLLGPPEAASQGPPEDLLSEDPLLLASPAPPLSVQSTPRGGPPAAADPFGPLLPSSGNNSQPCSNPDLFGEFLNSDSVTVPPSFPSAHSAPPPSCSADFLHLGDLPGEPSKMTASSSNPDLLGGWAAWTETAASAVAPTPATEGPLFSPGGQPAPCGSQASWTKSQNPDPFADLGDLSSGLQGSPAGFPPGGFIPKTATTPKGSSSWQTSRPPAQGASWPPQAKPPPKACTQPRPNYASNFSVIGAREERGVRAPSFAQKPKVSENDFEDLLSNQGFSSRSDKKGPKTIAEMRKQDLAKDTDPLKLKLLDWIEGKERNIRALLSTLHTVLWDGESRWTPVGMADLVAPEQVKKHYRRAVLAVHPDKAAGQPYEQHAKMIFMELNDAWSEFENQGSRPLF
In short: as §1

[10] = molecular target: T10, proteins of U2OS cell lysate (Homo sapiens, UniProt Q9Y5L0); conditions: TNPO3, Transportin-3
T10 construct: Proteins enriched by c-ponatinib from U2OS cell lysate; endogenous in cells; host or cells: U2OS cell lysate
In short: as §1

[11] = molecular target: T11, proteins of U2OS cell lysate (Homo sapiens, UniProt P14314); conditions: PRKCSH, Glucosidase 2 subunit beta
T11 construct: Proteins enriched by c-ponatinib from U2OS cell lysate; endogenous in cells; host or cells: U2OS cell lysate
In short: as §1

[12] = molecular target: T12, proteins of U2OS cell lysate (Homo sapiens, UniProt Q16531); conditions: DDB1, DNA damage-binding protein 1
T12 construct: Proteins enriched by c-ponatinib from U2OS cell lysate; endogenous in cells; host or cells: U2OS cell lysate
T12 sequence (Q16531 whole entry): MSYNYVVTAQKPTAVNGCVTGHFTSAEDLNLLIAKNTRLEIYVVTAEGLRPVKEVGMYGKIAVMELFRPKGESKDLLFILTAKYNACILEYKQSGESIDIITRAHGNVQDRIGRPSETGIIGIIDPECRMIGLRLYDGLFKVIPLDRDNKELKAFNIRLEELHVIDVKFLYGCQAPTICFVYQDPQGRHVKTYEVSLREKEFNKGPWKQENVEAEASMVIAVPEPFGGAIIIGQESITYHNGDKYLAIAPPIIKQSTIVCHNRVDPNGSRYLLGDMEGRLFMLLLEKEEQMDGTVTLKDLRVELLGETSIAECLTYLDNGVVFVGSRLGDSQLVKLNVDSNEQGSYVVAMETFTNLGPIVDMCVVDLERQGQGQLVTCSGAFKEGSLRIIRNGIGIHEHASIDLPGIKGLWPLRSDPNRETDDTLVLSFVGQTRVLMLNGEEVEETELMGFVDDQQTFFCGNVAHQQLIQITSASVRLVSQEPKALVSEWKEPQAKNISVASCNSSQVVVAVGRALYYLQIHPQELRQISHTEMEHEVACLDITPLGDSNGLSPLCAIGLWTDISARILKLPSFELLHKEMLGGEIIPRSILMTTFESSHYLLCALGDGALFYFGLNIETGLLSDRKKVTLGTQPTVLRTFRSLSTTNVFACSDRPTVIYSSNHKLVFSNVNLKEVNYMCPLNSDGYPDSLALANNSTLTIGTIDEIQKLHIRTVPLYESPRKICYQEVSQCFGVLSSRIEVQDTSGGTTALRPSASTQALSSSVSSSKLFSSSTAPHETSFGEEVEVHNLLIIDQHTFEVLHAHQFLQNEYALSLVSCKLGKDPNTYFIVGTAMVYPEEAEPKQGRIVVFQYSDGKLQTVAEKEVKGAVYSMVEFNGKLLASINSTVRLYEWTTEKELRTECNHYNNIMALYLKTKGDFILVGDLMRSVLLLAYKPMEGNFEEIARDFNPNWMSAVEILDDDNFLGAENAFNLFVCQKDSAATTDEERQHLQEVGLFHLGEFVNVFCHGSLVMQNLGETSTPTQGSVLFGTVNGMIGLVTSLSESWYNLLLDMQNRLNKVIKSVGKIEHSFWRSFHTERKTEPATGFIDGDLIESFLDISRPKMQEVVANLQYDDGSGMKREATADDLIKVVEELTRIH
In short: as §1

[13] = molecular target: T13, proteins of U2OS cell lysate (Homo sapiens, UniProt O94921); conditions: CDK14, Cyclin-dependent kinase 14
T13 construct: Proteins enriched by c-ponatinib from U2OS cell lysate; endogenous in cells; host or cells: U2OS cell lysate
In short: as §1

[14] = molecular target: T14, proteins of U2OS cell lysate (Homo sapiens, UniProt P51665); conditions: PSMD7, 26S proteasome non-ATPase regulatory subunit 7
T14 construct: Proteins enriched by c-ponatinib from U2OS cell lysate; endogenous in cells; host or cells: U2OS cell lysate
T14 sequence (P51665 whole entry): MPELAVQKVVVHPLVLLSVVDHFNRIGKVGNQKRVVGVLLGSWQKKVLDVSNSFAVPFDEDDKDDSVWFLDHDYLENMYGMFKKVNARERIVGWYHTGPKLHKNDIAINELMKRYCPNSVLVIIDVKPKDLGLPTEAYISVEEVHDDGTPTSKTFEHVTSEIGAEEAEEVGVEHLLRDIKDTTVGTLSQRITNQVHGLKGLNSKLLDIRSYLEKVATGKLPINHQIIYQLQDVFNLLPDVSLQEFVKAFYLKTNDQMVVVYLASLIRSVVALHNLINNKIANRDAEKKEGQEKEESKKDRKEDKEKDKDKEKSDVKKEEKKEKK
In short: as §1

[15] = molecular target: T15, proteins of U2OS cell lysate (Homo sapiens, UniProt P05783); conditions: KRT18, Keratin, type I cytoskeletal 18
T15 construct: Proteins enriched by c-ponatinib from U2OS cell lysate; endogenous in cells; host or cells: U2OS cell lysate
In short: as §1

[16] = molecular target: T16, proteins of U2OS cell lysate (Homo sapiens, UniProt P60953); conditions: CDC42, Cell division control protein 42 homolog
T16 construct: Proteins enriched by c-ponatinib from U2OS cell lysate; endogenous in cells; host or cells: U2OS cell lysate
T16 sequence (P60953 whole entry): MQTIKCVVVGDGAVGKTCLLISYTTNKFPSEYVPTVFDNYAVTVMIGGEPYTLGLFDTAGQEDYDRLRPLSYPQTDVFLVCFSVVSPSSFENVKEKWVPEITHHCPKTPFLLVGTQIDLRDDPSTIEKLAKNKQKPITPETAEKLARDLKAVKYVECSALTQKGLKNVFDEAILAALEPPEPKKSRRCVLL
In short: as §1

[17] = molecular target: T17, proteins of U2OS cell lysate (Homo sapiens, UniProt P51617); conditions: IRAK1, Interleukin-1 receptor-associated kinase 1
T17 construct: Proteins enriched by c-ponatinib from U2OS cell lysate; endogenous in cells; host or cells: U2OS cell lysate
T17 sequence (P51617 whole entry): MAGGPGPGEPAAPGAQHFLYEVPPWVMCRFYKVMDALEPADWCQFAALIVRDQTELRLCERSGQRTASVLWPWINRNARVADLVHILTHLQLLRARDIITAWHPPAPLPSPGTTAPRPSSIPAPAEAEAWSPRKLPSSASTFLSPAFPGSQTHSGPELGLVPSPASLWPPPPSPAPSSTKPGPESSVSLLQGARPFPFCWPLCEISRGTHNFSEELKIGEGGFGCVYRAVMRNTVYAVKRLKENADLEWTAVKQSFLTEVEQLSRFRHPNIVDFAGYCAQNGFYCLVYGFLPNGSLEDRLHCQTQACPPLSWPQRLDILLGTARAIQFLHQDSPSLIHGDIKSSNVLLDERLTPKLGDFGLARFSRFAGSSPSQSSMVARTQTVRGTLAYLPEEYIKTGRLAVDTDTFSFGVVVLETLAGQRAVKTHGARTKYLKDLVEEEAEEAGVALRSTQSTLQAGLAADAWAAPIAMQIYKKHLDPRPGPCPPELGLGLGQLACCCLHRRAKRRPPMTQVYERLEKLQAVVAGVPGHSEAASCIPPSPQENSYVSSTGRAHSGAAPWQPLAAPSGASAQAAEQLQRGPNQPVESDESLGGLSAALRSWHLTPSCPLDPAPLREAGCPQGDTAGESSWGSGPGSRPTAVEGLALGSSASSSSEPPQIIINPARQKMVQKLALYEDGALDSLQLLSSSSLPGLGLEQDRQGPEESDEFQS
In short: as §1

[18] = molecular target: T18, proteins of U2OS cell lysate (Homo sapiens, UniProt P10809); conditions: HSPD1, 60 kDa heat shock protein, mitochondrial
T18 construct: Proteins enriched by c-ponatinib from U2OS cell lysate; endogenous in cells; host or cells: U2OS cell lysate
In short: as §1

[19] = molecular target: T19, proteins of U2OS cell lysate (Homo sapiens, UniProt P51572); conditions: BCAP31, B-cell receptor-associated protein 31
T19 construct: Proteins enriched by c-ponatinib from U2OS cell lysate; endogenous in cells; host or cells: U2OS cell lysate
T19 sequence (P51572 whole entry): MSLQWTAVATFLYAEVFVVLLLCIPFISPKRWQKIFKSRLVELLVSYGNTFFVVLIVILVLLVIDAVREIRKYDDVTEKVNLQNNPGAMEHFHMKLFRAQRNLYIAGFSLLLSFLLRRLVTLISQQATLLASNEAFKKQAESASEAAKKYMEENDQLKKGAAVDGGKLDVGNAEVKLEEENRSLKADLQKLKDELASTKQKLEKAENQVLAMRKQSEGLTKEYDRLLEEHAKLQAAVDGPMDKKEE
In short: as §1

SMILES | Average LFQ intensity [1] | Average LFQ PON_WT [2] | Average LFQ PON_WT [3] | Average LFQ PON_WT [4] | Average LFQ PON_WT [5] | Average LFQ PON_WT [6] | Average LFQ PON_WT [7] | Average LFQ PON_WT [8] | Average LFQ PON_WT [9] | Average LFQ PON_WT [10] | Average LFQ PON_WT [11] | Average LFQ PON_WT [12] | Average LFQ PON_WT [13] | Average LFQ PON_WT [14] | Average LFQ PON_WT [15] | Average LFQ PON_WT [16] | Average LFQ PON_WT [17] | Average LFQ PON_WT [18] | Average LFQ PON_WT [19]
Cc1ccc(C(=O)Nc2ccc(CN3CCN(CCCN)CC3)c(C(F)(F)F)c2)cc1C#Cc1cnc2cccnn12 [c-ponatinib, reference compound] | 21.7615 | – | – | – | – | – | – | – | – | – | – | – | – | – | – | – | – | – | –
Cc1ccc(C(=O)Nc2ccc(CN3CCN(C)CC3)c(C(F)(F)F)c2)cc1C#Cc1cnc2cccnn12 [PON] | – | 26.6007 | 24.3032 | 29.7769 | 21.1391 | 20.9839 | 19.6049 | 19.5713 | 23.4188 | 20.3086 | 21.2991 | 20.7257 | 25.6287 | 21.0889 | 23.283 | 20.531 | 23.3938 | 21.1431 | 23.9511
